{"source": "patent US20130274331A1", "about": "“Method for Treating Hyperuricemia in Patients with Gout Using Halofenate or Halofenic Acid and an Anti-Inflammatory Agent” (Metabolex, Inc., priority 2012, published 2013)", "origin": "cited, not measured here", "settings": "gout patients; monotherapy at 40, 80, 120, 160 and 240 mg/day"}
{"smiles": "O=c1[nH]cnc2c(CN3C[C@H](CO)[C@@H](O)C3)c[nH]c12", "note": "[BCX4208, 7-(((3R,4R)-3-hydroxy-4-(hydroxymethyl)pyrrolidin-1-yl)methyl)-3H-pyrrolo[3,2-d]pyrimidin-4(5H)-one]", "values": [{"measurement": "reduction of serum uric acid", "result": "rapidly and significantly reduced serum uric acid"}]}
